Consider 85 compounds from the supplement of paper PMC3493320.

Each structure is given as a SMILES string. pIC50: −log10 of the molar value. Where only a bound is given, the exact number is not on record here.

The subject of the assay is NCI-H295R. As to the kind of experiment: IC50 (antiproliferative, ATP content). The settings on record: 48 h. The procedure, abridged: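 Compounds were pin-transferred at 8 final concentrations between 0.6 nM and 46 µM onto adrenocortical carcinoma cells (1500 per well, 1536-well plates) that had been cultured overnight in serum-free DMEM with ITS. Plates then stood 48 h at 37 °C, 5% CO2, and ATP was detected by CellTiter-Glo luminescence. IC50 was derived from logistic fits of normalised signal, and compounds giving no concentration response were noted as above the top dose.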
Broadly, the pIC50 is −log10 of the IC50, conventionally taken in molar units. As to `O=C(O)/C=C\C(=O)O.c1ccc2nc(N3CCNCC3)ccc2c1`, the negative logarithm of the IC50 (pIC50) was below 4.34.

The compound `COC(=O)c1ccc(O)cc1` had a pIC50 below 4.34.

`O=C(O)C=CC(=O)Nc1ccc(S(=O)(=O)Nc2nccs2)cc1`: the pIC50 was below 4.34.

Regarding `O=S([C@](CN1C=CN=N1)(C)[C@H]([C@]([O-])=O)N2C3=O)([C@@]([H])2C3)=O.[Na+]`, the pIC50 is below 4.34.

As for `O=c1[nH]cnc2nc[nH]c12`, the pIC50 was below 4.34.

As to `ClC4=C(Cl)[C@]5(Cl)[C@@]2([H])[C@]([C@](Cl)4[C@](Cl)5Cl)([H])[C@H]3[C@@H]1O[C@@H]1[C@@H]2C3`, the negative logarithm of the IC50 (pIC50) is below 4.34.

`CC(C)CCOC(=O)c1ccc(N(C)C)cc1` showed a pIC50 below 4.34.

For `O=C([O-])Cc1ccccc1Nc1c(Cl)cccc1Cl.[Na+]`, the negative-log IC50 (pIC50) was below 4.34.

For `Br.COc1ccc2c(c1)[C@]13CCCC[C@@H]1[C@H](C2)N(C)CC3.O`, the pIC50 was below 4.34.

As to `CCCCC[C@H](O)/C=C/[C@@H]1[C@@H](C/C=C\CCCC(=O)O)[C@@H](O)C[C@H]1O`, the pIC50 is below 4.34.

As to `CC(C)Cn1cnc2c(N)nc3ccccc3c21`, the negative logarithm of the IC50 (pIC50) is below 4.34.

For the compound `CN1C(=O)COc2c(C(=O)NC3CN4CCC3CC4)cc(Cl)cc21` (stereo not given), the pIC50 is below 4.34.

`CC(=O)OCC(=O)[C@@]1(O)CC[C@H]2[C@@H]3CCC4=CC(=O)CC[C@]4(C)C3=CC[C@@]21C` had a pIC50 below 4.34.

In turn, `Cc1c[nH]c2ccccc12` showed a pIC50 below 4.34.

The compound `O=C(OC[C@H]1O[C@](O)(COC(=O)c2cccnc2)[C@@H](OC(=O)c2cccnc2)[C@@H]1OC(=O)c1cccnc1)c1cccnc1` gave a pIC50 below 4.34.

Turning to `Cc1c(C)n(CCN(C)C)c2ccc(C(=O)OCCN(C)C)cc12`, the pIC50 was below 4.34.

In turn, `CN(C)C(=S)SC(=S)N(C)C` gave a pIC50 below 4.34.

Consider `CCC(C)[C@@H](N)C(=O)O` (stereo not given in full), for which the pIC50 is below 4.34.

Regarding `Nc1nc2ccc(OC(F)(F)F)cc2s1`, the pIC50 was below 4.34.

As to `NC(=O)OC[C@@H]1[C@H](NC(=O)/C(=N\OCC(=O)[O-])c2csc(N)n2)C(=O)N1S(=O)(=O)[O-].[Na+].[Na+]`, the negative logarithm of the IC50 (pIC50) is below 4.34.

`NC(CS)C(=O)O` (stereo not given) gave a pIC50 below 4.34.

`CC(=O)OCC(CCn1cnc2cnc(N)nc21)COC(C)=O` gave a pIC50 below 4.34.

With `C/C1=C2N=C(/C=C3N=C(/C(C)=C4\[N]([Co+][CH2][C@H]5O[C@@H](n6cnc7c(N)ncnc76)[C@H](O)[C@@H]5O)C(C(CC(N)=O)C4(C)CCC(=O)NCC(C)OP(=O)([O-])O[C@H]4[C@@H](O)[C@@H](n5cnc6cc(C)c(C)cc65)O[C@@H]4CO)C4(C)N=C1C(CCC(N)=O)C4(C)CC(N)=O)C(CCC(N)=O)C\3(C)C)C(CCC(N)=O)C/2(C)CC(N)=O` (stereo not given in full), the pIC50 is below 4.34.

`Cc1cc2nc3c(=O)[nH]c(=O)nc-3n(C[C@H](O)[C@H](O)[C@H](O)CO)c2cc1C` showed a pIC50 below 4.34.

With `O=C1N([C@@H](CC8=CC=CC=C8)C(N3CCC[C@@]23[H])=O)[C@@]2(O)O[C@]([C@H](C)C)1N[C@]([C@@H]6C[C@]([C@]7([H])N(C)C6)([H])C5=C4C(C7)=CNC4=CC=C5)=O`, the pIC50 was below 4.34.

In turn, `CC(=O)CCC(=O)[O-].CC(=O)CCC(=O)[O-].O.O.[Ca+2]` had a pIC50 below 4.34.

Turning to `CCCCCCCCOC(=O)c1ccccc1C(=O)OCCCCCCCC`, the negative logarithm of the IC50 (pIC50) was below 4.34.

The compound `O=C1NC(=O)[C@H]2[C@@H]1[C@@H]1C=C[C@H]2C1` had a pIC50 below 4.34.

`NC[C@@H]1CC[C@@H](N)[C@@H](O[C@H]2[C@H](O)[C@@H](O[C@H]3O[C@H](CO)[C@@H](O)[C@H](N)[C@H]3O)[C@H](N)C[C@@H]2N)O1` gave a pIC50 below 4.34.

As for `CCO[C@@H]1O[C@H](C(COCc2ccccc2)OCc2ccccc2)[C@H](OCc2ccccc2)[C@H]1O` (stereo not given in full), the pIC50 was below 4.34.

For the compound `CCN(CC)CCOC(=O)C1(c2ccccc2)CCCC1.CCN(CC)CCOC(=O)C1(c2ccccc2)CCCC1.O=S(=O)(O)CCS(=O)(=O)O`, the pIC50 was below 4.34.

As to `C=CCN(C1=NCCN1)c1c(Cl)cccc1Cl`, the pIC50 is below 4.34.

`CC(=O)CC(c1ccccc1)c1c([O-])c2ccccc2oc1=O.[K+]` (stereo not given) had a pIC50 below 4.34.

For the compound `CC1(C)NC(=O)N(c2ccc([N+](=O)[O-])c(C(F)(F)F)c2)C1=O`, the pIC50 was below 4.34.

For `O=C(O)C(Cl)Cl`, the pIC50 was below 4.34.

`C=CCOc1ccc(CC(=O)O)cc1Cl`: the pIC50 was below 4.34.

`CN1[C@@H]2CC[C@@H]1CC(OC1c3ccccc3CCc3ccccc31)C2.O=C(O)CC(O)(CC(=O)O)C(=O)O` (stereo not given in full): the pIC50 is below 4.34.

Compound `CCCCc1cc2ccccc2c(OCCN(C)C)n1.Cl` had a pIC50 below 4.34.

In turn, `CO/N=C(/C(=O)N[C@@H]1C(=O)N2C(C(=O)[O-])=C(COC(C)=O)CS[C@H]12)c1csc(N)n1.[Na+]` gave a negative logarithm of the IC50 (pIC50) below 4.34.

Turning to `COP(=O)(OC)C(O)C(Cl)(Cl)Cl` (stereo not given), the pIC50 is below 4.34.

Turning to `CC(=O)Nc1ccc(C(=O)O)cc1`, the pIC50 was below 4.34.

The compound `CCOC(C)OCC` gave a pIC50 below 4.34.

`CC1CC(O)CC(C)(C)C1` (stereo not given) gave a negative logarithm of the IC50 (pIC50) below 4.34.

Consider `CC(CNC(=O)c1cccnc1)NC(=O)c1cccnc1` (stereo not given), for which the pIC50 is below 4.34.

For the compound `[Br-].O.C[N+]2(C1C[C@H](CC2CC1)OC(=O)C(CO)c3ccccc3)C(C)C` (stereo not given), the negative-log IC50 (pIC50) is below 4.34.

As to `COc1ccc(C[C@@H](C)NC[C@H](O)c2ccc(O)c(NC=O)c2)cc1.COc1ccc(C[C@@H](C)NC[C@H](O)c2ccc(O)c(NC=O)c2)cc1.O=C(O)/C=C/C(=O)O`, the pIC50 was below 4.34.

As for `CC(=O)N[C@@H]([C@@H](O)[C@H](O)[C@H](O)CO)[C@@H](O)CC(=O)C(=O)O`, the pIC50 was below 4.34.

Turning to `Cc1cn[nH]c1`, the pIC50 is below 4.34.

`CC(C)C[C@@H](NC(=O)[C@@H](O)[C@H](N)Cc1ccccc1)C(=O)O.Cl` gave a pIC50 below 4.34.

In turn, `O.O=P1(N(CCCl)CCCl)NCCCO1` (stereo not given) had a pIC50 below 4.34.

On to `CC[N+]1(C)CCCC(OC(=O)C(O)(c2ccccc2)c2ccccc2)C1.[Br-]` (stereo not given), for which the pIC50 was below 4.34.

The compound `CC(C)[C@H](CC)CC[C@@H](C)[C@H]3CC[C@H]2[C@@H]4C\C=C1\C[C@@H](O)CC[C@]1(C)[C@H]4CC[C@@]23C` gave a pIC50 below 4.34.

Take `O[C@H]([C@@]1=CC=CC=C1)[C@H](C)N(C)C`: the pIC50 was below 4.34.

For `CCN(CC)CCNC(=O)c1cc(Br)c(N)cc1OC`, the pIC50 was below 4.34.

In the case of `COc1cc(NC(C)CCCN)c2ncccc2c1.O=P(O)(O)O.O=P(O)(O)O` (stereo not given), the pIC50 was below 4.34.

The compound `[NH2][Pt]1([NH2])[O]CC(=O)[O]1` showed a pIC50 below 4.34.

In the case of `CON=C(C(=O)N[C@@H]1C(=O)N2C(C(=O)[O-])=C(CSc3nc(C)c(CC(=O)[O-])s3)CS[C@H]12)c1csc(N)n1.[Na+].[Na+]`, the pIC50 was below 4.34.

Consider `Cc1ccccc1OCC(O)CNCCOc1ccc(C(N)=O)cc1` (stereo not given), for which the pIC50 was below 4.34.

In turn, `OCc1ccccc1O` had a pIC50 below 4.34.

The compound `COc1cc(C(=S)N2CCOCC2)ccc1O` gave a pIC50 below 4.34.

As to `CCCCC1C(=O)N(c2ccccc2)N(c2ccccc2)C1=O`, the pIC50 was below 4.34.

Regarding `O=C1/C(=C2\Nc3ccccc3C2=O)Nc2ccccc21`, the pIC50 is below 4.34.

For `O=[C@@](N[C@@H]([C@@](O)=O)CC2=CC=CC=C2)[C@@H]1CC[C@@H]([C@H](C)C)CC1`, the pIC50 is below 4.34.

Compound `COc1ccnc(CS(=O)c2nc3cc(OC(F)F)ccc3[nH]2)c1OC` (stereo not given) had a pIC50 below 4.34.

As for `CN(C)CCc1ccc(O)cc1`, the pIC50 is below 4.34.

The compound `COc1ccc2nc(NC(=O)Nc3ccccc3)sc2c1` showed a pIC50 below 4.34.

Take `O[C@](CN2N=CN=C2)([C@H]([C@@]3=C(F)C=NC=N3)C)C1=CC=C(F)C=C1F`: the pIC50 is below 4.34.

For the compound `Cc1ccc(O)c(-n2nc3ccccc3n2)c1`, the pIC50 is below 4.34.

`CCC1(C)CC(=O)NC(=O)C1` showed a pIC50 below 4.34.

`c1ccc2c(c1)OCC(CN1CCCCC1)O2` (stereo not given) showed a pIC50 below 4.34.

Regarding `C[C@H](O)CN(C)C`, the pIC50 was below 4.34.

In the case of `CCN(CC)CC#CCOC(=O)C(O)(c1ccccc1)C1CCCCC1.Cl` (stereo not given), the pIC50 is below 4.34.

As to `COc1cc(N)c(Cl)cc1C(=O)NC1CCN(Cc2ccccc2)CC1.O=C(O)/C=C\C(=O)O`, the pIC50 was below 4.34.

On to `CC(=O)Nc1ncc([N+](=O)[O-])s1`, for which the pIC50 was below 4.34.

Turning to `CCCCC1(COC(=O)CCC(=O)O)C(=O)N(c2ccccc2)N(c2ccccc2)C1=O`, the pIC50 is below 4.34.

`CCOC(=O)O[C@]1(C(=O)COC(=O)CC)CC[C@H]2[C@@H]3CCC4=CC(=O)C=C[C@]4(C)[C@H]3[C@@H](O)C[C@@]21C`: the pIC50 is below 4.34.

In turn, `O[C@H]1[C@@H]([C@]2=CC(O)=C(O)C=C2)OC3=C(C(O)=CC(O)=C3)C1` had a pIC50 below 4.34.

Consider `O.O.O.O.O=C1[O][Mg]2([O]C(=O)c3ccccc3[O]2)[O]c2ccccc21`, for which the pIC50 is below 4.34.

Consider `N=C(N)NCC1COc2ccccc2O1` (stereo not given), for which the pIC50 was below 4.34.

As to `COc1ccc(CCN(C)CCCC(C#N)(c2ccc(OC)c(OC)c2)C(C)C)cc1OC` (stereo not given), the pIC50 is below 4.34.

As to `C[C@@H](O)[C@H]1C(=O)N2C(C(=O)O)=C(S[C@@H]3CN[C@H](CNS(N)(=O)=O)C3)[C@H](C)[C@H]12`, the pIC50 is below 4.34.

`COc1ccc2c(c1OC)C(=O)O[C@@H]2[C@H]1c2c(cc3c(c2OC)OCO3)CCN1C` had a pIC50 below 4.34.

`CN1[C@@H](CC(=O)c2ccccc2)CCC[C@H]1C[C@H](O)c1ccccc1` gave a negative-log IC50 (pIC50) below 4.34.

Compound `CCC(=O)O[C@@](Cc1ccccc1)(c1ccccc1)[C@@H](C)CN(C)C.O=S(=O)(O)c1ccc2ccccc2c1` showed a pIC50 below 4.34.

The compound `CC(C)[C@@H]1CC[C@@H](C)C[C@H]1O` had a negative logarithm of the IC50 (pIC50) below 4.34.
